Test results: patent US20040022866A1, “Pharmaceutical compositions with antibiotic activity” (ZAMBON GROUP S.P.A., priority 2002, published 2004)

Test: DSC measurement of the heat of the degradation reaction of FT
Format: physicochemical
Conditions: scanning 10° C./min., mechanic mixture FT 0.02 moles + stabilizer 0.01 moles, 0.05% of water with respect to FT, reduced heat = higher stabilization
Procedure: The stabilization of FT from the selected stabilizers was evaluated experimentally with the DSC technology.
A mechanic mixture of FT (0.02 moles) with each of the stabilizers (0.01 moles) was admixed with 0.05% of water with respect to FT.
The DCS technology used for each mixture (scanning 10° C./min.) allow to measure the reaction heat which develops after the melting peak of FT, due to the degradation reaction.
A reduced heat development indicates a higher stabilization, the amount of FT being the same.

C[C@@H]1O[C@@H]1P(=O)(O)O.NC(CO)(CO)CO [FT (single substance), Fosfomycin Tromethamol]
reaction heat which develops after the melting peak of FT, due to the degradation reaction: 271.03 ± 16.73 (J/g)
